{
  "source": "patent US20090017103A1",
  "about": "“Antisense oligonucleotides for prevention of metastasis formation of cancer cells” (priority 2003, published 2009)",
  "key": {"[1]": {"system": "osteopontin", "experiment": "Western blot of osteopontin expression after exposure to ASOs", "type": "cell-based, human", "settings": "MDA-MB231, lipofectamine, 10 μM"}, "[2]": {"system": "osteonectin", "experiment": "Western blot of osteonectin expression after exposure to ASOs", "type": "cell-based, human", "settings": "single exposure, lipofectamine, 10 μM"}, "[3]": {"system": "MDA-MB-231 breast cancer cells", "experiment": "Clonogenicity assay (colony formation)", "type": "cell-based, human", "settings": "20 μM", "procedure": "For determining the response of MDA-MB-231 colony formation to exposure with antisense oligonucleotides and erucylphospho-NNN-trimethylpropanolamine (ErPC3) the following procedure was used. MDA-MB-231 cells were treated for various periods of time (see below), harvested and counted. Cells (5000) were then transferred into semi-solid medium containing 0.8t RPMI-methylcellulose and 30% FBS. Cells were plated onto 3.5 cm Petri-dishes (1 ml/dish) (NUNC, Wiesbaden, Germany) and usual cell culture conditions (37° C., 5% CO2 in humidified air) were applied. Colony formation (clusters of 30 or more cells) was visualized by staining with 3-[4,5-dimethylthiazol-2-yl]-2,5-diphenyltetrazolium-bromide (MTT; Serva, Heidelberg, Germany) and the resulting dark blue colonies were scored by an inverted microscope after 5-7 days. At least three dishes per treatment protocol were used.\nPending on the duration of treatment, 1×10^5-3×10^5 cells were transferred onto 6 well plates (Nunc, Wiesbaden, Germany) and grown for 24 h. For transfection, ASO stock solutions were prepared in medium without FBS. According to the protocol of the manufacturer, the respective ASO stock solution was mixed with lipofectamine to allow ASO-liposome complexes to form. To 200 μl medium containing ASO quantities resulting in 10 μM (Western blot and in vivo model) and in 5, 10, or 20 μM (clonogenicity assay) final ASO-concentrations, an equal volume of medium without FBS was added containing 5, 10, or 20 μl lipofectamine, respectively. In addition to the ASO treatment, a NSO control (20 μM final concentration with 20 μl lipofectamine) and a lipofectamine control (20 μl) were used. […] After 12 h the medium was changed, and cells were further grown for 48-72 h. In the case of a sequential combination treatment this first cycle was repeated with the respective combination partner.\nThe alkylphosphocholine ErPC3 was synthesized and provided by Prof. H. Eibl (MPI of Biophysical Chemistry, Göttingen, FRG). For treating MDA-MB-231 cells, ErPC3 which was kept as stock solution in ethanol and PBS (10 mM; ratio of diluents 1:1; V:V), was diluted in PBS resulting in final concentrations of 10, 14, and 20 μM. The medium containing ErPC3 was changed after 24 h in all experiments and the cells were further grown for 48-72 h without ErPC3 (for details of sequential exposure see below).\nSequential combination treatment consisted of two or three treatment cycles. The two cycle treatment started either with the ASO and was followed by ErPC3 or was performed with the reverse sequence. The three cycle treatment started either with two cycles of ASO followed by ErPC3 or an initial exposure to ErPC3 was followed by two cycles with an ASO.\nColony counts are presented as mean with corresponding standard deviation. For comparison of incidences between treatment groups the x^2 test was used and for comparison of the lesion sizes the Kruskal-Wallis test was applied. P values≦0.05 were considered significant. Predicted theoretical values of combinations were calculated according to the equation: C=a×b/100, where a and b are colony counts in percent of untreated control obtained in response to single agents. For each concentration applied theoretical values were calculated and compared with the real value of the combination. In addition, isobologram and multiple drug effect analysis was examined by a suitable program (CalcuSyn, Biosoft, Ferguson, USA) to study the nature of the interaction observed. For this purpose, the dose-effect curve for each drug alone was determined based on the experimental observations using the median-effect principle; the combination index (CI) for each combination was then calculated according to the following equation:\nCI=(D)1/(Dx)1+(D)2/(Dx)2+(D1)×(D2)/(Dx)1×(Dx)2\nwhere (D)1 and (D)2 are the doses of drug 1 and drug 2 that have x effect when used in combination and (Dx)1 and (Dx)2 are the doses of drug 1 and drug 2 that have the same x effect when used alone. […]"}, "[4]": {"system": "MDA-MB-231^GFP cells", "experiment": "In vivo treatment with mini-osmotic pumps (osteolytic bone metastasis model);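 as to Size of lesion (per animal): lesion size in relative units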", "parameters": "species or system nude rats", "settings": "for X-ray scan of hind legs: lytic lesions (in words): FIG. 5-7; for T/C × 100: mean lesion size vs NSO control rats; for Mean size of lesion / Size of lesion (per animal): mini-osmotic pumps; for Incidence of metastasis: mini-osmotic pumps s.c., 7 mg/kg daily over four weeks"}, "[5]": {"system": "bone sialoprotein II", "experiment": "Western blot of bone sialoprotein II expression after exposure to ASOs", "type": "cell-based, human", "settings": "10 μM"}, "[6]": {"system": "MDA-MB-231^GFP cells", "experiment": "In vivo model with pretreated MDA-MB-231^GFP cells (osteolytic bone metastasis)", "parameters": "species or system nude rats; lesion size of the rat(s) that developed lytic metastasis, % of control / lesion sizes with respect to all animals of the group compared to untreated control / lesion size of individual animal compared to the untreated control / T/C % (mean lesion size compared to untreated control): concentration or dose not given beside the values", "settings": "for T/C × 100: mean lesion size vs untreated control rats; for Incidence of metastasis: cells pretreated in vitro (10 μM)"}},
  "note": "“And” between values parts separate entries of the source, which are not always exact repeats. Equal values may be shown once.",
  "data": [
    {"substance": "5′-GCGAGGGAGTTCTTCTTCTA-3′ (GCGAGGGAGTTCTTCTTCTA; phosphorothioate backbone, further chemistry not given here) [NSO, reference compound]", "values": [
      {"measurement": "osteopontin expression in relation to untreated control (100%)", "setting": "[1]; single exposure", "value": 99.5, "unit": "%"},
      {"measurement": "osteopontin expression in relation to untreated control (100%)", "setting": "[1]; twofold exposure", "value": 99, "unit": "%"},
      {"measurement": "osteonectin expression in relation to untreated control (100%)", "setting": "[2]; MDA-MB231", "value": 94, "unit": "%"},
      {"measurement": "osteonectin expression in relation to untreated control (100%)", "setting": "[2]; MDA-MB231^F (growing without FBS)", "value": 80, "unit": "%"},
      {"measurement": "osteonectin expression in relation to untreated control (100%)", "setting": "[2]; MDA-MB435s", "value": 97, "unit": "%"},
      {"measurement": "% Control", "setting": "[3]; Exp. III a", "value": 94, "unit": "%"},
      {"measurement": "Mean colony no.", "setting": "[3]; Exp. III a, control 456", "value": 430},
      {"measurement": "% Control", "setting": "[3]; Experiment II, single treatment", "value": 96, "unit": "%"},
      {"measurement": "Mean colony no.", "setting": "[3]; Experiment II, single treatment, control 705", "value": 676},
      {"measurement": "% Control", "setting": "[3]; Experiment III b", "value": 97, "unit": "%"},
      {"measurement": "Mean colony no.", "setting": "[3]; Experiment III b, control 517", "value": 504},
      {"measurement": "X-ray scan of hind legs: lytic lesions (in words)", "setting": "[4]; eight weeks after tumor cell implantation", "value": "clear increase of lytic lesions in the tibia and fibula"},
      {"measurement": "X-ray scan of hind legs: lytic lesions (in words)", "setting": "[4]; four weeks after tumor cell implantation, therapy from implantation", "value": "small lytic lesions in the tibia"},
      {"measurement": "X-ray scan of hind legs: lytic lesions (in words)", "setting": "[4]; six weeks after tumor cell implantation", "value": "visible lytic lesions in the tibia and fibula"},
      {"measurement": "X-ray scan of hind legs: lytic lesions (in words)", "setting": "[4]; ten weeks after tumor cell implantation", "value": "lytic metastases with clear deterioration are visible in all regions of the right hind leg"},
      {"measurement": "T/C × 100", "setting": "[4]; week 4", "value": 100},
      {"measurement": "Mean size of lesion", "setting": "[4]; week 4", "value": 33, "unit": "R.U."},
      {"measurement": "Size of lesion (per animal)", "setting": "[4]; week 4", "value": "45 R.U. and 8 R.U. and 46 R.U."},
      {"measurement": "Incidence of metastasis", "setting": "[4]; week 4", "value": "3/3"},
      {"measurement": "T/C × 100", "setting": "[4]; week 6", "value": 100},
      {"measurement": "Mean size of lesion", "setting": "[4]; week 6", "value": 177, "unit": "R.U."},
      {"measurement": "Size of lesion (per animal)", "setting": "[4]; week 6", "value": "307 R.U. and 29 R.U. and 194 R.U."},
      {"measurement": "Incidence of metastasis", "setting": "[4]; week 6", "value": "3/3"},
      {"measurement": "T/C × 100", "setting": "[4]; week 8", "value": 100},
      {"measurement": "Mean size of lesion", "setting": "[4]; week 8", "value": 273, "unit": "R.U."},
      {"measurement": "Size of lesion (per animal)", "setting": "[4]; week 8", "value": "403 R.U. and 99 R.U. and 318 R.U."},
      {"measurement": "Incidence of metastasis", "setting": "[4]; week 8", "value": "3/3"},
      {"measurement": "T/C × 100", "setting": "[4]; week 9", "value": 100},
      {"measurement": "Mean size of lesion", "setting": "[4]; week 9", "value": 379, "unit": "R.U."},
      {"measurement": "Size of lesion (per animal)", "setting": "[4]; week 9", "value": "453 R.U. and 278 R.U. and 406 R.U."},
      {"measurement": "Incidence of metastasis", "setting": "[4]; week 9", "value": "3/3"},
      {"measurement": "T/C × 100", "setting": "[4]; week 10", "value": 100},
      {"measurement": "Mean size of lesion", "setting": "[4]; week 10", "value": 429, "unit": "R.U."},
      {"measurement": "Size of lesion (per animal)", "setting": "[4]; week 10", "value": "512 R.U. and 313 R.U. and 461 R.U."},
      {"measurement": "Incidence of metastasis", "setting": "[4]; week 10", "value": "3/3"},
      {"measurement": "T/C × 100", "setting": "[4]; week 12", "value": 100},
      {"measurement": "Mean size of lesion", "setting": "[4]; week 12", "value": 434, "unit": "R.U."},
      {"measurement": "Size of lesion (per animal)", "setting": "[4]; week 12", "value": "534 R.U. and 316 R.U. and 453 R.U."},
      {"measurement": "Incidence of metastasis", "setting": "[4]; week 12", "value": "3/3"},
      {"measurement": "bone sialoprotein II expression in relation to untreated control (100%)", "setting": "[5]; MDA-MB231, single exposure, electroporation", "value": 99, "unit": "%"},
      {"measurement": "bone sialoprotein II expression in relation to untreated control (100%)", "setting": "[5]; MDA-MB231, single exposure, lipofectamine", "value": 100, "unit": "%"},
      {"measurement": "bone sialoprotein II expression in relation to untreated control (100%)", "setting": "[5]; MDA-MB231, twofold exposure, lipofectamine", "value": 97, "unit": "%"},
      {"measurement": "bone sialoprotein II expression in relation to untreated control (100%)", "setting": "[5]; MDA-MB231^F (growing without FBS), single exposure, lipofectamine", "value": 100, "unit": "%"},
      {"measurement": "bone sialoprotein II expression in relation to untreated control (100%)", "setting": "[5]; MDA-MB435s, single exposure, lipofectamine", "value": 65, "unit": "%"},
      {"measurement": "T/C × 100", "setting": "[6]; 4 weeks", "value": 78},
      {"measurement": "T/C × 100", "setting": "[6]; 6 weeks", "value": 95},
      {"measurement": "T/C × 100", "setting": "[6]; 8 weeks", "value": 140},
      {"measurement": "X-ray scan of hind legs: osteolytic lesions (in words)", "setting": "[6]; FIG. 3 and FIG. 4, one rat each, cells pre-exposed", "value": "large osteolytic lesions in the femur, tibia and fibula"},
      {"measurement": "Incidence of metastasis", "setting": "[6]; observation period 4 weeks", "value": "2/2"},
      {"measurement": "Mean size of lesion", "setting": "[6]; observation period 4 weeks, pretreated cells", "value": 173, "unit": "R.U."},
      {"measurement": "Incidence of metastasis", "setting": "[6]; observation period 6 weeks", "value": "2/2"},
      {"measurement": "Mean size of lesion", "setting": "[6]; observation period 6 weeks, pretreated cells", "value": 287, "unit": "R.U."},
      {"measurement": "Incidence of metastasis", "setting": "[6]; observation period 8 weeks", "value": "2/2"},
      {"measurement": "Mean size of lesion", "setting": "[6]; observation period 8 weeks, pretreated cells", "value": 485, "unit": "R.U."},
      {"measurement": "T/C % (mean lesion size compared to untreated control)", "setting": "[6]; pretreated cells, after eight weeks", "value": 140, "unit": "%"},
      {"measurement": "average lesion sizes compared to untreated control", "setting": "[6]; pretreated cells, after four weeks", "value": "about 78%"},
      {"measurement": "lesion sizes with respect to all animals of the group compared to untreated control", "setting": "[6]; pretreated cells, over observation period week 4 to week 8", "value": 104, "unit": "%"}
    ]}
  ]
}
